Test results taken from patent publication US8933233B2, “1,3,4-oxadiazole and 1,3,4-thiadiazole β-lactamase inhibitors” (priority 2012, dated 2015).
Where a name gives a salt, the structure may show the parent alone.

What was measured:
[1] = test system: bacterial strains that express the class D cephalosporinase OXA-15; test: Synergy MIC / standard BLI potentiation MIC assay, strains expressing OXA-15; format: cell-based, E. coli; conditions: in presence of a β-lactam; comparator Avibactam (CCC)
Method: (§1) Unless otherwise indicated, the activity of the BLI compounds can be described by the MIC value obtained from a Synergy MIC assay or a BLI potentiation assay (e.g as described herein), both of which are run in the presence of a β-lactam.
(§2) The experimental protocol was performed according to Clinical and Laboratory Standards Institute (CLSI) guidelines with modifications as described below (CLSI guidelines can be derived from the CLSI document M07-A9 published in January 2012: “Methods for Dilution Antimicrobial Susceptibility Tests for Bacteria That Grow Aerobically; Approved Standard-Ninth Edition”).
(§3) To prepare for MIC testing, frozen glycerol stocks of clinical isolates (Klebsiella pneumoniae, Eschericia coli, Enterobacter spp, Citrobacter spp, or Pseudomonas aeruginosa) were used to streak for isolated colonies on rich, non-selective, tryptic soy agar containing 5% sheep's blood (TSAB). Frozen glycerol stocks of laboratory engineered, isogenic E. coli strains, which contain cloned β-lactamase expressing plasmids were used to streak for isolated colonies on rich, selective LB agar supplemented with 25 μg/mL tetracycline to maintain the plasmid. All strains were incubated at 37° C. for 18-24 hrs.
(§4) On the day of testing, primary cultures were started by scraping off 5-10 colonies from the TSAB plates containing clinical strains or the tetracycline supplemented LB plates containing engineered strains. The clinical strain material was suspended in ˜5 mL of cation adjusted Mueller Hinton Broth (CAMHB) in 14 mL culture tubes. The engineered strain material was suspended in CAMHB (supplemented with 25 μg/mL tetracycline) in 14 mL culture tubes. All strains were incubated at 37° C. with aeration (200 rpm) for ˜2 hrs until the optical density at 600 nm (OD600) was ≧0.1.
(§5) The two compound components of the assay were each diluted in CAMHB and added to the 96-well broth microdilution assay plates. 50 μL of the β-lactam was added to each well of the assay plate in 2-fold dilutions with final concentrations ranging from 128 to 0.13 μg/mL. 25 μL of the BLI compound was added to all wells in the broth microdilution plates at a final concentration of 4 μg/mL. Inoculum cultures were prepared by standardizing the primary cultures to OD600=0.1 and then adding 20 μL of the adjusted primary culture per 1 mL CAMHB for clinical strains or CAMHB (supplemented with tetracycline at 100 μg/mL) for engineered strains, so that the final inoculum density was ˜10^5 colony forming units per milliliter. Diluted inoculum cultures were used to inoculate 25 μL per well in 96-well broth microdilution assay plates. The final volume of each well was 100 μL and contained a β-lactam at different concentrations, a BLIcompound at 4 μg/mL concentration, the bacterial culture at an OD600 of approximately 0.001 and when necessary tetracycline at 25 μg/mL.
(§6) Plates were incubated for 18-20 hours at 37° C. with aeration (200 rpm). Following incubation, growth was confirmed visually placing plates over a viewing apparatus (stand with a mirror underneath) and then OD600 was measured using a SpectraMax 340PC384 plate reader (Molecular Devices, Sunnyvale, Calif.). Growth was defined as turbidity that could be detected with the naked eye or achieving minimum OD600 of 0.1. MIC values were defined as the lowest concentration producing no visible turbidity.
(§7) The synergy MIC (sMIC) assay determines the concentration of the BLI required to potentiate the activity of a fixed concentration of a β-lactam antibiotic against β-lactamase producing bacterial strains. The experimental protocol was performed according to Clinical and Laboratory Standards Institute (CLSI) guidelines with modifications as described below (CLSI guidelines can be derived from the CLSI document M07-A9 published in January 2012: “Methods for Dilution Antimicrobial Susceptibility Tests for Bacteria That Grow Aerobically; Approved Standard-Ninth Edition”). […]

[2] = test system: bacterial strains that express KPC β-lactamases; test: Synergy MIC / standard BLI potentiation MIC assay, strains expressing KPC β-lactamases; format: cell-based, isogenic E. coli and clinical isolates; conditions: more active for at least one KPC strain and/or better spectrum; comparator Avibactam
Method: as §1, §2, §3, §4, §5, §6, §7

N=C(N)Nc1nnc([C@@H]2CC[C@@H]3CN2C(=O)N3OS(=O)(=O)O)o1 [Compound 738, (2S,5R)-2-(5-guanidino-1,3,4-oxadiazol-2-yl)-7-oxo-1,6-diazabicyclo[3.2.1]octan-6-yl hydrogen sulfate]
activity against bacterial strains that express OXA-15, compared with Avibactam [1]: more active than Avibactam
activity and/or spectrum of activity against bacterial strains that express KPC β-lactamases, compared with Avibactam [2]: more active than Avibactam

N=C1NCC(c2nnc([C@@H]3CC[C@@H]4CN3C(=O)N4OS(=O)(=O)O)o2)N1 (stereo partly drawn) [Compound 767, (2S,5R)-2-(5-(2-iminoimidazolidin-4-yl)-1,3,4-oxadiazol-2-yl)-7-oxo-1,6-diazabicyclo[3.2.1]octan-6-yl hydrogen sulfate]
activity against bacterial strains that express OXA-15, compared with Avibactam [1]: more active than Avibactam
activity and/or spectrum of activity against bacterial strains that express KPC β-lactamases, compared with Avibactam [2]: more active than Avibactam

N=C(N)N[C@H]1C[C@@H](c2nnc([C@@H]3CC[C@@H]4CN3C(=O)N4OS(=O)(=O)O)o2)C1 [Compound 749, 2S,5R)-2-(5-((1s,3R)-3-guanidinocyclobutyl)-1,3,4-oxadiazol-2-yl)-7-oxo-1,6-diazabicyclo[3.2.1]octan-6-yl hydrogen sulfate]
activity against bacterial strains that express OXA-15, compared with Avibactam [1]: more active than Avibactam
activity and/or spectrum of activity against bacterial strains that express KPC β-lactamases, compared with Avibactam [2]: more active than Avibactam

N=C(N)NC1(Cc2nnc([C@@H]3CC[C@@H]4CN3C(=O)N4OS(=O)(=O)O)o2)CC1 [Compound 739, (2S,5R)-2-(5-((1-guanidinocyclopropyl)methyl)-1,3,4-oxadiazol-2-yl)-7-oxo-1,6-diazabicyclo[3.2.1]octan-6-yl hydrogen sulfate]
activity against bacterial strains that express OXA-15, compared with Avibactam [1]: more active than Avibactam
activity and/or spectrum of activity against bacterial strains that express KPC β-lactamases, compared with Avibactam [2]: more active than Avibactam

O=C1N2C[C@@H](CC[C@H]2c2nnc(CCNCCO)o2)N1OS(=O)(=O)O [Compound 736, (2S,5R)-2-(5-(2-((2-hydroxyethyl)amino)ethyl)-1,3,4-oxadiazol-2-yl)-7-oxo-1,6-diazabicyclo[3.2.1]octan-6-yl hydrogen sulfate]
activity against bacterial strains that express OXA-15, compared with Avibactam [1]: more active than Avibactam
activity and/or spectrum of activity against bacterial strains that express KPC β-lactamases, compared with Avibactam [2]: more active than Avibactam

O=C1N2C[C@@H](CC[C@H]2c2nnc(C3CC4(CNC4)C3)o2)N1OS(=O)(=O)O [Compound 750, (2S,5R)-2-(5-(2-azaspiro[3.3]heptan-6-yl)-1,3,4-oxadiazol-2-yl)-7-oxo-1,6-diazabicyclo[3.2.1]octan-6-yl hydrogen sulfate]
activity against bacterial strains that express OXA-15, compared with Avibactam [1]: more active than Avibactam
activity and/or spectrum of activity against bacterial strains that express KPC β-lactamases, compared with Avibactam [2]: more active than Avibactam

N[C@H]1CC[C@@H](c2nnc([C@@H]3CC[C@@H]4CN3C(=O)N4OS(=O)(=O)O)o2)C1 [Compound 768, (2S,5R)-2-(5-((1R,3S)-3-aminocyclopentyl)-1,3,4-oxadiazol-2-yl)-7-oxo-1,6-diazabicyclo[3.2.1]octan-6-yl hydrogen sulfate]
activity against bacterial strains that express OXA-15, compared with Avibactam [1]: more active than Avibactam
activity and/or spectrum of activity against bacterial strains that express KPC β-lactamases, compared with Avibactam [2]: more active than Avibactam

O=C1N2C[C@@H](CC[C@H]2c2nnc(CCN3CCNCC3)o2)N1OS(=O)(=O)O [Compound 776, (2S,5R)-7-oxo-2-(5-(2-(piperazin-1-yl)ethyl)-1,3,4-oxadiazol-2-yl)-1,6-diazabicyclo[3.2.1]octan-6-yl hydrogen sulfate]
activity against bacterial strains that express OXA-15, compared with Avibactam [1]: more active than Avibactam
activity and/or spectrum of activity against bacterial strains that express KPC β-lactamases, compared with Avibactam [2]: more active than Avibactam

NC1CCN(Cc2nnc([C@@H]3CC[C@@H]4CN3C(=O)N4OS(=O)(=O)O)o2)CC1 [Compound 774, (2S,5R)-2-(5-((4-aminopiperidin-1-yl)methyl)-1,3,4-oxadiazol-2-yl)-7-oxo-1,6-diazabicyclo[3.2.1]octan-6-yl hydrogen sulfate]
activity against bacterial strains that express OXA-15, compared with Avibactam [1]: more active than Avibactam
activity and/or spectrum of activity against bacterial strains that express KPC β-lactamases, compared with Avibactam [2]: more active than Avibactam

N[C@H]1C[C@H](CCc2nnc([C@@H]3CC[C@@H]4CN3C(=O)N4OS(=O)(=O)O)o2)C1 [Compound 753, (2S,5R)-2-(5-(2-((1r,3R)-3-aminocyclobutyl)ethyl)-1,3,4-oxadiazol-2-yl)-7-oxo-1,6-diazabicyclo[3.2.1]octan-6-yl hydrogen sulfate]
activity against bacterial strains that express OXA-15, compared with Avibactam [1]: more active than Avibactam
activity and/or spectrum of activity against bacterial strains that express KPC β-lactamases, compared with Avibactam [2]: more active than Avibactam

N[C@H]1CN[C@@H](c2nnc([C@@H]3CC[C@@H]4CN3C(=O)N4OS(=O)(=O)O)o2)C1 [Compound 761, (2S,5R)-2-(5-((2R,4R)-4-aminopyrrolidin-2-yl)-1,3,4-oxadiazol-2-yl)-7-oxo-1,6-diazabicyclo[3.2.1]octan-6-yl hydrogen sulfate]
activity against bacterial strains that express OXA-15, compared with Avibactam [1]: more active than Avibactam
activity and/or spectrum of activity against bacterial strains that express KPC β-lactamases, compared with Avibactam [2]: more active than Avibactam

N=C(N)NC1CC(Cc2nnc([C@@H]3CC[C@@H]4CN3C(=O)N4OS(=O)(=O)O)o2)C1 (stereo partly drawn) [Compound 752, (2S,5R)-2-(5-((3-guanidinocyclobutyl)methyl)-1,3,4-oxadiazol-2-yl)-7-oxo-1,6-diazabicyclo[3.2.1]octan-6-yl hydrogen sulfate]
activity against bacterial strains that express OXA-15, compared with Avibactam [1]: more active than Avibactam
activity and/or spectrum of activity against bacterial strains that express KPC β-lactamases, compared with Avibactam [2]: more active than Avibactam

N=C(N)N1CC(c2nnc([C@@H]3CC[C@@H]4CN3C(=O)N4OS(=O)(=O)O)o2)C1 [Compound 709, (2S,5R)-2-(5-(1-carbamimidoylazetidin-3-yl)-1,3,4-oxadiazol-2-yl)-7-oxo-1,6-diazabicyclo[3.2.1]octan-6-yl hydrogen sulfate]
activity against bacterial strains that express OXA-15, compared with Avibactam [1]: more active than Avibactam
activity and/or spectrum of activity against bacterial strains that express KPC β-lactamases, compared with Avibactam [2]: more active than Avibactam

O=C1N2C[C@@H](CC[C@H]2c2nnc(CCNC3CCNCC3)o2)N1OS(=O)(=O)O [Compound 770, (2S,5R)-7-oxo-2-(5-(2-(piperidin-4-ylamino)ethyl)-1,3,4-oxadiazol-2-yl)-1,6-diazabicyclo[3.2.1]octan-6-yl hydrogen sulfate]
activity against bacterial strains that express OXA-15, compared with Avibactam [1]: more active than Avibactam
activity and/or spectrum of activity against bacterial strains that express KPC β-lactamases, compared with Avibactam [2]: more active than Avibactam

NC(=O)c1nnc([C@@H]2CC[C@@H]3CN2C(=O)N3OS(=O)(=O)O)o1 [Compound 706, (2S,5R)-2-(5-carbamoyl-1,3,4-oxadiazol-2-yl)-7-oxo-1,6-diaza-bicyclo[3.2.1]octan-6-yl hydrogen sulfate]
activity against bacterial strains that express OXA-15, compared with Avibactam [1]: more active than Avibactam
activity and/or spectrum of activity against bacterial strains that express KPC β-lactamases, compared with Avibactam [2]: more active than Avibactam

NC1(Cc2nnc([C@@H]3CC[C@@H]4CN3C(=O)N4OS(=O)(=O)O)o2)CC1 [Compound 724, (2S,5R)-2-(5-((1-aminocyclopropyl)methyl)-1,3,4-oxadiazol-2-yl)-7-oxo-1,6-diazabicyclo[3.2.1]octan-6-yl hydrogen sulfate]
activity against bacterial strains that express OXA-15, compared with Avibactam [1]: more active than Avibactam
activity and/or spectrum of activity against bacterial strains that express KPC β-lactamases, compared with Avibactam [2]: more active than Avibactam
